Data on 12 substances can be found in patent publication US10752900B2, “Oligonucleotides for modulating gene expression and uses thereof” (BIOGENERA S.P.A., priority 2012, dated 2020).

In data set [1] the test system is Phoenix. The experiment in a line: Cellular proliferation, Phoenix fibroblastoid-type cells. Type of data set: cell-based. The conditions noted are these: Table 1; cells that do not express MYCN. On the procedure: (§1) Cell viability was assessed by means of an ATP-Lite assay (Luminescence ATP Detection Assay System, PerkinElmer) and is reported as the ratio between the average signal of the treated wells compared to the average value of the wells of untreated control cells. The cells were processed following the instructions provided with the kit.
Moreover, the oligonucleotides having SEQ ID NO 1-23 were administered in lines of fibroblastoid-type cells (NIH-3T3 and Phoenix) and the results are shown in Table 1 (last two columns). […]

Data set [2] relates to MYCN gene. The experiment in a line: QT-PCR, MYCN mRNA in WiT49 cells. Format: cell-based, human. The conditions noted are these: Table 6. As for the experimental part: For the purpose of assessing the ability of the oligonucleotides of the present invention to modulate the expression of the target genes, their ability to reduce the quantity of messenger RNA was analyzed using the Real-Time PCR technique. For this purpose, use was made of 24-well plates, which were seeded with 5.0×10^4 cells with 0.3 ml of OPTI-MEM (GIBCO BRL) medium, 4% FBS and 2 mM L-glutammine (experiments in triplicate) per well. The cells were incubated for 24 hours at 37° C., in an atmosphere containing 5% CO2 to permit adherence to the base of the wells. For each well, the oligonucleotides were analyzed at the following final concentrations: • the antisense oligonucleotides siRNA and siRNA gapmer (i.e. the oligonucleotides containing one or more monomers of chemically modified nucleic acids at the 3' or 5' end, while in the central portion they have monomers of nucleic acids that have not been modified or have been modified at the level of the phosphodiester bond as a phosphorothioate bond) were used at 200 nM; • the antisense oligonucleotides containing phosphorothioate DNA monomers, the RNA antigene oligonucleotides (agRNA) and the oligonucleotides containing DNA monomers and LNA monomers were used at 10 μM; • the morpholino oligonucleotides were used at a concentration of 1 μM, and • the PNA oligonucleotides were administered at a concentration of 1 μM. The cells were treated with the oligonucleotides, adding FBS up to 4% 6 hours after administration of the same. After 24 hours the total RNA was extracted from each well and purified using the RNeasy Mini Kit (QIAGEN). Assays were performed on 8 cell lines obtained from 5 different human tumours which are correlated with MYCN expression, i.e.: • as a neuroblastoma model use was made of the cell lines Kelly, IMR-32 (where the MYCN gene is amplified and superexpressed) and SKNBE2c and LAN1 (where the MYCN gene is amplified and superexpressed and the p53 gene is mutated); • as a rabdomiosarcoma model use was made of the cell line RH30, where the MYCN gene is amplified and superexpressed; • as a Wilms' tumour model use was made of the cell line WiT49, where the MYCN gene is amplified and superexpressed; • as a retinoblastoma model use was made of the cell line Y79, where the MYCN gene is amplified and superexpressed; and • as a model of small cell lung cancer use was made of the cell line H69 where the MYCN gene is amplified and superexpressed. As a control, use was made of the same cell lines as listed above treated with sterile water instead of oligonucleotides. Each RNA sample was quantified (in duplicate) using a NanoDrop ND-1000 spectrophotometer (NanoDrop Technologies). The first strand of cDNA was produced using the cDNA Synthesis Kit for RT-PCR (Roche). For the cDNA synthesis reaction a total of 1 μg of RNA was used. For the real-time PCR, 10 ng of cDNA in a final volume of 20 μl was used with SYBR Green Master Mix 2× (Applied Biosystems) (3 identical experiments were conducted in triplicate). Two housekeeping genes were used as positive controls: GAPDH and beta-actin (ACTB). The conditions of the QT-PCR reaction were: 10 min at 95° C., 20 sec at 95° C., and 30 sec at 60° C., for 50 cycles. The PNAs having SEQ ID NO: 1-12 were also tested on different cell lines which overexpress MYCN (Kelly, SKNBE2c, RH30, […] 1 and H69). The results are shown in Table 6 and confirm the selectivity and specificity of the inhibition effect of the PNAs on the product of protein translation of the MYCN gene.

In data set [3] the test system is H69. In words: Cellular proliferation assay (ATP-Lite), H69 cells. Format: cell-based, human. The conditions noted are these: Table 6. As for the experimental part:
For the purpose of assessing the gene modulation ability of the oligonucleotides of the present invention, the effect of their administration on cell viability was determined.
For this purpose 5×10^3 cells per well were seeded into 96-well cell culture plates (experiments conducted in triplicate) with 100 μl of OPTI-MEM (GIBCO BRL) medium containing 4% FBS and 2 mM of L-glutammine.
The PNA oligonucleotides were administered at different concentrations (1 μM-2.5 μM-5 μM-10 μM) in order to observe a dose-effect relationship.
The viability of the treated cells was determined at 48, 72, 96 and 168 hours after treatment.
as §1
The assays were performed on the same cell lines used to determine the levels of the MYCN gene messenger and listed in the paragraph: Treatments with Oligonucleotides—QT-PCR.
The PNAs having SEQ ID NO: 1-12 were also tested on different cell lines which overexpress MYCN (Kelly, SKNBE2c, RH30, WiT49, WERI-Rb1 1 and H69). The results are shown in Table 6 and confirm the selectivity and specificity of the inhibition effect of the PNAs on the product of protein translation of the MYCN gene.
The ability of the tested oligonucleotides to inhibit the messenger of the gene of interest was measured and the proliferative capacity of the cells following administration of the oligonucleotides was also assessed.

For data set [4], the system named is rabdomyosarcoma cells (RH30). In words: Cellular proliferation assay (ATP-Lite), RH30 cells. Format: cell-based, human. The conditions noted are these: Table 6, PNA. As for the experimental part: For the purpose of assessing the gene modulation ability of the oligonucleotides of the present invention, the effect of their administration on cell viability was determined. For this purpose 5×10^3 cells per well were seeded into 96-well cell culture plates (experiments conducted in triplicate) with 100 μl of OPTI-MEM (GIBCO BRL) medium containing 4% FBS and 2 mM of L-glutammine. The PNA oligonucleotides were administered at different concentrations (1 μM-2.5 μM-5 μM-10 μM) in order to observe a dose-effect relationship. As regards all the other oligonucleotides, the concentrations at which they administered are listed in the paragraph: The viability of the treated cells was determined at 48, 72, 96 and 168 hours after treatment. Cell viability was assessed by means of an ATP-Lite assay (Luminescence ATP Detection Assay System, PerkinElmer) and is reported as the ratio between the average signal of the treated wells compared to the average value of the wells of untreated control cells. The cells were processed following the instructions provided with the kit. The assays were performed on the same cell lines used to determine the levels of the MYCN gene messenger and listed in the paragraph: Treatments with Oligonucleotides-QT-PCR. The PNAs having SEQ ID NO: 1-12 were also tested on different cell lines which overexpress MYCN (Kelly, SKNBE2c, RH30, […] 1 and H69). The results are shown in Table 6 and confirm the selectivity and specificity of the inhibition effect of the PNAs on the product of protein translation of the MYCN gene. Chimeric oligonucleotides comprising DNA monomers and LNA monomers and having the MYCN gene as their target were tested in vitro on alveolar rabdomyosarcoma cells (RH30). […] The antisense oligonucleotides designed and synthesized by the Applicant according to the parameters described in the present invention were analyzed in vitro on rabdomyosarcoma cells (RH30).

Consider “SEQ ID NO: 12: PNA antigene oligonucleotide TGTCTGGACGCGCTGG directed against MYCN (all peptide nucleic acid (PNA))”, for which the “Phoenix prolif. (%)” value in data set [1] is recorded as 100%. Further, in data set [2], the “WiT49 % mRNA” value is recorded as 62%. Further, the “H69 % cell prol.” value in data set [3] amounted to 78%. The “RH30 % cell prol.” value in data set [4] was 77%.

Regarding “SEQ ID NO: 5: PNA antigene oligonucleotide GCTGGGTGGATGCGGG directed against MYCN (PNA backbone, chemistry not fully specified)”, the “Phoenix prolif. (%)” value in data set [1] came out at 100%. In addition, the “WiT49 % mRNA” value in data set [2] is 69%. Moreover, in data set [3], the “H69 % cell prol.” value is listed as 68%. In addition, the “RH30 % cell prol.” value in data set [4] is listed as 64%.

“SEQ ID NO: 2: PNA antigene oligonucleotide GGGTGGATGCGGGGGG directed against MYCN (PNA backbone, chemistry not fully specified)”: the “Phoenix prolif. (%)” value in data set [1] turned out to be 100%. Moreover, in data set [2], the “WiT49 % mRNA” value amounted to 78%. Further, in data set [3], the “H69 % cell prol.” value amounted to 61%. In addition, the “RH30 % cell prol.” value in data set [4] worked out at 56%.

“SEQ ID NO: 11: PNA antigene oligonucleotide GGGAACTGTGTTGGAG directed against MYCN (PNA backbone, chemistry not fully specified)”: the “Phoenix prolif. (%)” value in data set [1] was 100%. In addition, the “WiT49 % mRNA” value in data set [2] amounted to 60%. In addition, the “H69 % cell prol.” value in data set [3] is listed as 78%. Further, the “RH30 % cell prol.” value in data set [4] was 78%.

On to “SEQ ID NO: 6: PNA antigene oligonucleotide TGGACGCGCTGGGTGG directed against MYCN (PNA backbone, chemistry not fully specified)”, for which the “Phoenix prolif. (%)” value in data set [1] stood at 100%. Besides, the “WiT49 % mRNA” value in data set [2] is given as 68%. For the same substance, the “H69 % cell prol.” value in data set [3] turned out to be 69%. Moreover, the “RH30 % cell prol.” value in data set [4] was found to be 64%.

With “SEQ ID NO: 9: PNA antigene oligonucleotide CCCTGCAGTCGGCGGG directed against MYCN (all peptide nucleic acid (PNA))”, in data set [1], the “Phoenix prolif. (%)” value came to 100%. Further, in data set [2], the “WiT49 % mRNA” value was 66%. Further, in data set [3], the “H69 % cell prol.” value is 70%. For the same substance, the “RH30 % cell prol.” value in data set [4] was 71%.

In the case of “SEQ ID NO: 4: PNA antigene oligonucleotide GTCGGCGGGAGGTAAG directed against MYCN (PNA backbone, chemistry not fully specified)”, the “Phoenix prolif. (%)” value in data set [1] stood at 100%. Also, the “WiT49 % mRNA” value in data set [2] came out at 73%. The “H69 % cell prol.” value in data set [3] is 66%. In addition, in data set [4], the “RH30 % cell prol.” value amounted to 62%.

As to “SEQ ID NO: 8: PNA antigene oligonucleotide GTCTGGACGCGCTGGG directed against MYCN (all peptide nucleic acid (PNA))”, in data set [1], the “Phoenix prolif. (%)” value worked out at 100%. For the same substance, the “WiT49 % mRNA” value in data set [2] was determined as 72%. For the same substance, the “H69 % cell prol.” value in data set [3] is recorded as 66%. Besides, in data set [4], the “RH30 % cell prol.” value was 60%.

As for “SEQ ID NO: 10: PNA antigene oligonucleotide CGGCCGCGGGCCGCCA directed against MYCN (PNA backbone, chemistry not fully specified)”, the “Phoenix prolif. (%)” value in data set [1] turned out to be 100%. In data set [2], the “WiT49 % mRNA” value worked out at 60%. For the same substance, the “H69 % cell prol.” value in data set [3] was determined as 79%. Moreover, the “RH30 % cell prol.” value in data set [4] amounted to 80%.

As for “SEQ ID NO: 7: PNA antigene oligonucleotide CGCGCTGGGTGGATGC directed against MYCN (all peptide nucleic acid (PNA))”, the “Phoenix prolif. (%)” value in data set [1] was 100%. For the same substance, the “WiT49 % mRNA” value in data set [2] was 70%. Further, in data set [3], the “H69 % cell prol.” value was found to be 67%. In addition, the “RH30 % cell prol.” value in data set [4] worked out at 63%.

For “SEQ ID NO: 1: PNA ATGCCGGGCATGATCT against MYCN; subject of patent EP 1618195, control sequence used for comparison (all peptide nucleic acid (PNA)) [reference compound]”, in data set [1], the “Phoenix prolif. (%)” value is given as 100%. For the same substance, in data set [2], the “WiT49 % mRNA” value is recorded as 62%. Besides, the “H69 % cell prol.” value in data set [3] came to 77%. The “RH30 % cell prol.” value in data set [4] is given as 76%.

As for “SEQ ID NO: 3: PNA antigene oligonucleotide GATGCGGGGGGCTCCT directed against MYCN (PNA backbone, chemistry not fully specified)”, the “Phoenix prolif. (%)” value in data set [1] stood at 100%. Moreover, in data set [2], the “WiT49 % mRNA” value turned out to be 75%. For the same substance, the “H69 % cell prol.” value in data set [3] stood at 63%. Moreover, in data set [4], the “RH30 % cell prol.” value is listed as 59%.
